Data reported in PubChem BioAssay (NCI).
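Where inhibition never reached the appropriate level, the endpoint shown equals the highest concentration tested. Otherwise, values were interpolated linearly from a five-concentration, 48-hour dose response in 96-well plates. TGI: total growth inhibition.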

What was measured:
Test in all cases: growth of human tumour cells (NCI), 48 h
786-0 renal = test system: 786-0 renal
COLO 205 colon = test system: COLO 205 colon
HCT-116 colon = test system: HCT-116 colon
HCT-15 colon = test system: HCT-15 colon
HOP-92 NSCLC = test system: HOP-92 NSCLC
K-562 leukemia = test system: K-562 leukemia
KM12 colon = test system: KM12 colon
MDA-MB-231 breast = test system: MDA-MB-231 breast
MDA-MB-435 = test system: MDA-MB-435
MDA-N = test system: MDA-N
OVCAR-3 ovarian = test system: OVCAR-3 ovarian
PC-3 prostate = test system: PC-3 prostate
RPMI-8226 leukemia = test system: RPMI-8226 leukemia
SF-268 CNS = test system: SF-268 CNS
SK-MEL-5 melanoma = test system: SK-MEL-5 melanoma
SNB-19 CNS = test system: SNB-19 CNS

| Compound | TGI (786-0 renal) [µM] | TGI (COLO 205 colon) [µM] | TGI (HCT-116 colon) [µM] | TGI (HCT-15 colon) [µM] | TGI (HOP-92 NSCLC) [µM] | TGI (K-562 leukemia) [µM] | TGI (KM12 colon) [µM] | TGI (MDA-MB-231 breast) [µM] | TGI (MDA-MB-435) [µM] | TGI (MDA-N) [µM] | TGI (OVCAR-3 ovarian) [µM] | TGI (PC-3 prostate) [µM] | TGI (RPMI-8226 leukemia) [µM] | TGI (SF-268 CNS) [µM] | TGI (SK-MEL-5 melanoma) [µM] | TGI (SNB-19 CNS) [µM] |
| --- | --- | --- | --- | --- | --- | --- | --- | --- | --- | --- | --- | --- | --- | --- | --- | --- |
| CCC(=O)NC(NNS(=O)(=O)c1ccc(C)cc1)(C(F)(F)F)C(F)(F)F | > 100 | > 100 | > 100 | > 100 | > 100 | > 100 | > 100 | > 100 | 48 | 54.3 | > 10 | > 100 | > 100 | > 100 | > 100 | > 100 |
| CC(C)(C)C1CC[C@H](O)[C@H]([C@@H](O)CC2CC(=O)N(c3ccccc3)C(=O)C2)C1 (some centres undefined) | > 100 |  | > 100 | > 100 | > 100 | > 100 | > 100 | > 100 | > 100 | > 100 | > 100 | > 100 | > 100 | > 100 | > 100 | > 100 |
| CC(C)(C)c1cc(C(C)(C)C)c(SSc2c(C(C)(C)C)cc(C(C)(C)C)c(O)c2O)c(O)c1O | 19.2 | 27.5 | 23.2 | 20.7 | 31.9 | 26.2 | 25.4 | 28 | 17.2 | 23.9 |  | 28.5 | 32.1 | 24.7 | 24 | 25.5 |
| COc1ccc(-c2c(C#N)c(N)nc(Sc3ccccc3N)c2C#N)cc1 | 32.3 | > 100 | > 100 | > 100 | 27.2 | > 100 | > 100 | 48.2 | > 100 | > 100 | > 100 | > 55.6 | > 100 | 28.1 | > 100 | > 55.5 |
| CSCCCNC(=O)c1csc(-c2csc(CCNC(=O)CNC(=O)OC(C)(C)C)n2)n1 | > 100 | > 100 | > 100 | > 100 | > 100 | > 100 | > 100 | > 100 | > 100 | > 100 | > 100 | > 100 |  | > 100 | > 100 | > 100 |
| C[C@]12CC/C(=N\OCCN3CCCC3)C=C1CCC1C2CC[C@@]2(C)C1CC[C@]2(C)O (some centres undefined) | 14.8 | 11.9 | 18 | 15 | 32.3 | 14.2 | 19.1 | 34 | 6.67 | 6.33 | 24.1 | 71.7 | 14 | 31.9 | 29.9 | 49 |
| CCOP(=O)(OCC)/C(C#N)=C/c1cccn1C | > 100 | > 100 | > 100 | > 100 | > 100 |  | > 100 | > 100 | > 100 | > 100 | > 100 | > 100 | > 100 | > 100 | > 100 | > 100 |
| NNC(=O)c1cc(Cl)ccc1NC(=O)C12CC3CC(CC(C3)C1)C2 | 79.9 | > 100 | 85.5 | > 100 | > 100 | > 100 | > 100 | > 100 | > 100 | 70.5 | > 100 | > 100 | 69.7 | 89.5 | 76.5 | 43.1 |
| N#Cc1ccc(N=NN2CCCC2)cc1 | > 100 | > 100 | > 100 | > 100 | > 100 | > 100 | > 100 | > 100 | > 100 | > 100 | > 100 | > 100 | > 100 | > 100 | > 100 | > 100 |
| COC(=O)C1=CCC[C@H]2[C@@]1(COC(C)=O)CC[C@@H](C)[C@]2(C)CC(=O)c1ccoc1 | > 50 | 27.3 | 30.4 | 49.5 | 37.8 |  | > 50 | > 50 | > 50 | > 50 | > 50 | > 50 | 29.6 | > 50 | 16.9 | > 50 |
| CCCCCCCCCCCC(=O)OCC(O)CO (centres undefined) | > 100 | > 100 | > 100 | > 100 | > 100 |  | 75.6 | > 100 | > 100 | > 100 | > 100 | > 100 |  | > 100 | > 100 | > 100 |
| CCc1cn(C2CC(CO)C(CO)S2)c(=O)[nH]c1=O (centres undefined) | > 100 | > 100 | > 100 | > 100 | > 100 | > 100 | > 100 | > 100 | > 100 | > 100 | > 100 | > 100 | > 100 | > 100 | > 100 | > 100 |
| CCSc1c2cc(OC)ccc2nc2ccc(OC)cc12 | > 61 | > 45.3 | > 47.8 | > 100 | > 100 | > 44.1 | > 55.6 | 44.6 | > 57.7 | 21.7 | > 61.2 | > 56 | 22.2 | > 58.6 | 30.3 | > 100 |
| CCOC(=O)c1sc2c(c1OC(=O)c1ccco1)c(=O)n(-c1ccccc1)c(=S)n2-c1ccccc1 | > 100 | 38.1 | > 100 | > 100 | 71.3 | > 100 | > 100 | > 100 | 93 | > 100 | 76.9 | 50 | 78.5 | > 100 | 32.1 | > 100 |
| COc1ccc(/C=N/n2c(Cc3ccccc3)n[nH]c2=O)c(OC)c1 | > 69 | > 31.6 | > 55.1 | > 100 | > 75 | > 100 | > 100 | > 62.7 | > 100 | > 100 | > 100 | > 100 | > 100 | 47 | > 100 | > 77.5 |
| CCOC1OC(CO[Si](C)(C)C(C)(C)C)C(O)CC1n1ccc(=O)[nH]c1=O (centres undefined) | > 100 | > 100 | 30.7 | > 100 | > 100 | 73.1 | > 100 | > 100 | > 100 | > 100 | > 100 | > 100 | > 100 | > 100 | > 100 | > 100 |
| N#Cc1ccccc1NC(=O)C(O)C(O)C(O)C(O)C=O (centres undefined) | > 100 | > 100 | > 100 | > 100 | > 100 | > 100 | > 100 | > 100 | > 100 | > 100 | > 100 | > 100 |  | > 100 | > 100 | > 100 |
| COC(=O)c1c(C)c2c(c(C)c1O)OC(=O)c1c(C)cc(O)c(C=O)c1O2 | > 100 | > 100 | > 100 | > 100 | > 100 | > 100 | > 100 | > 100 | > 100 | > 100 | > 100 | > 100 | > 100 | > 100 | > 100 | > 100 |
| CCOC(=O)C1=C(C)N(Cc2ccccc2)C2(O)C=CC(=O)C3C(=O)N(c4ccccc4)C(=O)C132 (centres undefined) | 3.27 | 3.1 | 2.49 | 5.14 | 7.96 | 27.3 | 4.59 | 12.1 | 3.86 | 12.5 | 6.08 | 6.88 | 3.1 | 7.81 | 12.8 | 21.4 |
| C1=C(c2ccccc2)NC2=N[C@H]3CCCC[C@@H]3N2C1c1ccccc1 (some centres undefined) | 30.7 | 25.2 | 20.2 | 23.5 | 25.2 | 72.2 | 22.9 | 30.2 | 26.4 | 29 | 25.8 | 23.9 | 49.8 | 51.7 | 27.9 | 27.7 |
| O=C(Cn1c(C(=O)/C=C/c2ccc(Cl)c(Cl)c2)nc2ccccc21)c1ccccc1 | 44 | 36.2 | 35.1 | 91.6 | 96.1 | > 100 | 56.5 | 70.5 | 42.4 | 47.2 | 31.9 | > 100 | > 100 | > 100 | 35.4 | 86.1 |
| CC1=NN(c2nc(N)nc(CCl)n2)C(C)(C)C1 | 15.9 | > 58 | > 70.1 | 55.9 | 45.7 | > 69.5 | 51.5 | 85.7 | > 100 | > 100 | > 51.8 | > 100 | > 100 | 68 | > 56 | > 100 |
| NC(N)=NS(=O)(=O)c1ccc(NCc2cccc3c(=O)c4ccc(Cl)cc4oc23)cc1 | > 12.9 | > 20.3 | > 22.4 | > 20 | 17.8 | > 25 | > 25 | > 15.6 | > 25 | > 19.1 | > 18.3 | > 14 | > 25 | 12.7 | > 16.5 | 22.2 |
| CCN1C(c2ccccc2)=CC(c2ccccc2)(C(Cl)(Cl)Cl)C=C1c1ccccc1 | > 100 |  | 29.3 | > 100 | 25.8 | > 100 | 16.2 | > 100 | 9.51 | > 100 | > 100 | > 100 | > 100 | 86.3 | 4.46 | > 100 |
| COc1ccccc1OC/C(N=Cc1cccnc1)=N/NC(=O)c1ccncc1 | > 100 | > 100 | > 100 | > 100 | > 100 | > 100 | > 100 | > 100 | > 100 | > 100 | > 100 | > 100 | > 100 | > 100 |  | > 100 |
| COP(=O)(OC)[C@@](O)(c1ccccc1)[C@@H](O)[C@@H](O)c1ccccc1 | > 100 | > 100 | > 100 | > 100 | > 100 |  | > 100 | > 100 | > 100 | > 100 | > 100 | > 100 |  | > 100 | > 100 | > 100 |
| O=C(c1ccsc1)c1nccc2c1cnc1ccccc12 | > 100 | > 100 | > 100 | > 100 | > 100 |  | > 100 | > 100 | > 100 | > 100 | > 100 | > 100 | > 100 | > 100 | > 100 | > 100 |
| COc1cccc(-c2nc(N)c(C#N)c3c2CCS(=O)(=O)c2ccc(C)cc2-3)c1 | > 100 | > 56.4 | > 100 | > 100 | > 100 | 11 | > 58.4 | > 95.3 | > 100 | > 42.6 | > 100 | > 100 |  | > 100 | > 63.3 | > 100 |
| CCOC(=O)C1Cc2ccc(C)cc2C1=O (centres undefined) | > 100 | > 100 | > 100 | > 100 | > 100 | > 100 | > 100 | > 100 | > 100 | > 100 | > 100 | > 100 | > 100 | > 100 | > 100 |  |
